pIC50: −log10 of the molar value.
Organism: Rattus norvegicus
Assay: Inhibition against gluconeogenesis was expressed as effect of compound on rat hepatocyte glucose production from 10 mM lactate/1 mM pyruvate/0.5 mM oleate
Assay type: functional
Conditions: Rattus norvegicus, Hepatocyte

Q: `C=C1[C@@H](CC(N)=O)[C@H]1CCCC` was tested. Which pIC50 did it give?
A: 5.40

Q: `C=C1[C@@H](CCCCCCCCCCCC)[C@@H]1CC(=O)O` was tested. Which pIC50 did it give?
A: 3.80

Q: `C=C1[C@@H](CC(=O)O)[C@H]1CCCC` was tested. Which pIC50 did it give?
A: 4.82

Q: `C=C1C[C@@H]1CC(N)=O` was tested. Which pIC50 did it give?
A: 4.52

Q: How did the pIC50 turn out when `C=C1[C@@H](CC(N)=O)[C@H]1CCCCCCCCCCCC` was run?
A: 4.49

Q: `C=C1[C@H](CCCC)[C@H]1CC(N)=O` was tested. Which pIC50 did it give?
A: 4.22

Q: `C=C1[C@H](CCCC)[C@H]1CC(=O)O` was tested. Which pIC50 did it give?
A: 4.52

Q: With `C=C1[C@@H](CC(N)=O)[C@H]1CCCCCCCC` as the compound, how does the pIC50 read?
A: 5.10

Q: With `C=C1C[C@@H]1CC(=O)O` as the compound, how does the pIC50 read?
A: 4.22

Q: How did the pIC50 turn out when `C=C1[C@@H](CC(=O)O)[C@H]1CCCCCCCCCCCC` was run?
A: 4.60

Q: How did the pIC50 turn out when `C=C1[C@@H](CC(=O)O)[C@H]1CCCCCCCC` was run?
A: 5.30

Same assay, conditions: hepatocyte

Q: `C=C1[C@H](CCCCCCCCCCCC)[C@H]1CC(=O)O` (stereo in doubt) was tested. Which pIC50 did it give?
A: 4.89

Q: `C=C1[C@H](CCCCCCCCCCCC)[C@H]1CC(=O)O` (stereo in doubt; 4d) was tested. Which pIC50 did it give?
A: 3.70

Source: ChEMBL document CHEMBL1127005, “Design of novel agents for the therapy of non-insulin dependent diabetes mellitus (NIDDM)” (Bioorg Med Chem Lett, 1993)
